One compound from PMC11931445, “A Novel Compound QO‐83 Alleviates Acute and Chronic Epileptic Seizures in Rodents by Modulating KV7 Channel Activity” (CNS Neuroscience & Therapeutics, 2025) can be followed below.

Series [1] relates to PTZ-induced seizures. Kind of series: Metrazol maximal seizure (MMS) model. In kind it is in vivo, C57BL/6J mice. Particulars: 15 mg/kg. The method, then: For this experimental phase, male C57BL/6J mice weighing between 18 g and 25 g were randomly assigned to four groups based on their body weight. The QO‐83 group was divided into two subgroups, one receiving a dosage of 1 mg/kg (i.p.) and the other receiving a dosage of 3 mg/kg (i.p.).
PTZ (85 mg/kg, 0.1 mL per 10 g) was administered subcutaneously at the nape of the neck. Subsequently, mice were promptly placed in individual transparent observation chambers under quiet conditions. A stopwatch was utilized to measure seizure latency, defined as the time from PTZ injection to the onset of a generalized systemic clonic seizure and loss of the […]. The number of animals experiencing seizures was manually recorded.

Series [2] can be described thus: Colour stability of drug solutions. In kind it is physicochemical. Particulars: 10 μM in saline, 37°C, 30 days. The method, then:
Both drugs were dissolved in saline at a concentration of 10 μM and maintained at a constant temperature of 37°C for 30 days.

Series [3] concerns the target KV7.3 (Homo sapiens, UniProt O43525). Kind of series: Manual patch clamp, KV7 currents. Format: cell-based. On the procedure:
(§1) Pipettes (1–6 MΩ) were filled with a solution of KCl (145 mM), MgCl2 (1 mM), HEPES (10 mM), and EDTA (5 mM). The pH was adjusted to 7.2 with NaOH. Electrophysiological measurements were obtained using an AXON Multiclamp 700 B patch‐clamp amplifier. The bath solution contained NaCl (144 mM), KCl (5 mM), MgCl2 (1 mM), CaCl2 (2 mM), and D‐glucose (10 mM), with the pH adjusted to 7.4 using NaOH. The protocol involved an increase in voltage from −120 mV to 40 mV in increments of 10 mV to evoke a series of KV7 currents (1000 ms per pulse) in the bath solution. For details on cell culture, please see Appendix S1 2.2.1.
(§2) Statistical differences between multiple groups (mean ± SEM) were compared using one‐ or two‐way ANOVA. Electrophysiological data were analyzed using SPSS version 21 and OriginPro (version 9.1.0). P Peak inward currents obtained from activation protocols were calculated using the following equation: G = I/(Vm‐EK), where G is conductance, I is peak inward current, Vm is instantaneous membrane potential, and EK is equilibrium potential for the […] channel. Conductance data were normalized using maximum conductance and further fitted to the Boltzmann equation: G=Gmax+Gmin−Gmax/1+expVm−V1/2/k , where G is conductance, V1/2 is midpoint of activation, and k is slope factor. The “Spectrum” module of LabChart was used for data analysis of EEG signals, including the calculation of power density and averaging power spectral density (PSD).
Background: Patch clamp records ionic current or voltage across a cell membrane.

Series [4] deals with T1, KV7.2/7.3 (Homo sapiens, UniProt O43525+O43526).
T1 construct: expressed in transfected cells
The experiment in a line: Manual patch clamp, KV7 currents. In kind it is cell-based. On the procedure:
as §1, §2
(§3) Stable Chinese Hamster Ovary (CHO) cell lines expressing specific Kv7 channel subtypes, including KV7.2 and KV7.2/7.3, were cultured in Minimum Essential Medium (MEM) supplemented with 10% fetal calf serum, 1× nonessential amino acids, […], and […] hygromycin B. Concurrently, KV7.4 and KV7.5 channels were stably expressed in Human Embryonic Kidney 293A (HEK293A) cell lines and nurtured in Dulbecco's Modified Eagle Medium (DMEM) high glucose medium supplemented with 10% fetal bovine serum (FBS), […], and […] hygromycin B.

For series [5], the target named is T2, KV7.2 (Homo sapiens, UniProt O43526).
T2 construct: expressed in transfected cells
The experiment in a line: Manual patch clamp, KV7 currents. In kind it is cell-based. The following applies: KV7.2. The method, then:
as §1, §2, §3

Series [6] concerns the target T3, KV7.4 (Homo sapiens, UniProt P56696).
T3 construct: expressed in transfected cells
Kind of series: Manual patch clamp, KV7 currents. In kind it is cell-based. On the procedure:
as §1, §2, §3

The target of series [7] is T4, KV7.5 (Homo sapiens, UniProt Q9NR82).
T4 construct: expressed in transfected cells
The experiment in a line: Manual patch clamp, KV7 currents. Format: cell-based. The method, then:
as §1, §2, §3

For the compound `CCOC(=O)Nc1ccc(NCc2ccc(F)cc2)cc1N` [RTG, retigabine], in series [1], the seizure protection rate is listed as 40%. Besides, in series [2], the “color change of drug solution” value is “developed a distinct purple coloration”. The “activation curve V1/2” value in series [3] (10.00 μM) is -55.64 ± 1.31 mV; in series [4] (10.00 μM), -37.76 ± 2.34 mV; in series [5] (10.00 μM) it was -32.23 ± 1.89 mV; in series [6] (10.00 μM), -40.62 ± 2.00 mV; in series [7] (10.00 μM) it was -56.77 ± 1.07 mV. Further, the “Activation τ (10 mV)” value in series [3] (10 μM, Mean ± SE) worked out at 246.33 ± 21.28 ms; in series [4] (10 μM, Mean ± SE), 205.66 ± 37.03 ms; in series [5] (10 μM, Mean ± SE) it was 259.60 ± 69.06 ms; in series [6] (10 μM, Mean ± SE) it was 242.74 ± 34.66 ms; in series [7] (10 μM, Mean ± SE), 170.33 ± 16.42 ms. Also, the “Deactivation τ (-120 mV)” value in series [3] (10 μM, Mean ± SE) is listed as 153.33 ± 48.97 ms; in series [4] (10 μM, Mean ± SE), 154.46 ± 45.81 ms; in series [5] (10 μM, Mean ± SE), 102.04 ± 18.32 ms; in series [6] (10 μM, Mean ± SE), 99.62 ± 18.87 ms; in series [7] (10 μM, Mean ± SE) it was 96.4 ± 14.98 ms.
